# Measured values from patent publication US10168342B2, “Lipid probes and uses thereof” (THE SCRIPPS RESEARCH INSTITUTE, priority 2015, dated 2019).
# Like-named read-outs stand apart in the source and are kept apart here.
# Key:
# [1] = biological target: T1, AEA-DA lipid probe targets in Neuro2a cells (Mus musculus, UniProt O88325)
# T1 sequence (O88325 22-739): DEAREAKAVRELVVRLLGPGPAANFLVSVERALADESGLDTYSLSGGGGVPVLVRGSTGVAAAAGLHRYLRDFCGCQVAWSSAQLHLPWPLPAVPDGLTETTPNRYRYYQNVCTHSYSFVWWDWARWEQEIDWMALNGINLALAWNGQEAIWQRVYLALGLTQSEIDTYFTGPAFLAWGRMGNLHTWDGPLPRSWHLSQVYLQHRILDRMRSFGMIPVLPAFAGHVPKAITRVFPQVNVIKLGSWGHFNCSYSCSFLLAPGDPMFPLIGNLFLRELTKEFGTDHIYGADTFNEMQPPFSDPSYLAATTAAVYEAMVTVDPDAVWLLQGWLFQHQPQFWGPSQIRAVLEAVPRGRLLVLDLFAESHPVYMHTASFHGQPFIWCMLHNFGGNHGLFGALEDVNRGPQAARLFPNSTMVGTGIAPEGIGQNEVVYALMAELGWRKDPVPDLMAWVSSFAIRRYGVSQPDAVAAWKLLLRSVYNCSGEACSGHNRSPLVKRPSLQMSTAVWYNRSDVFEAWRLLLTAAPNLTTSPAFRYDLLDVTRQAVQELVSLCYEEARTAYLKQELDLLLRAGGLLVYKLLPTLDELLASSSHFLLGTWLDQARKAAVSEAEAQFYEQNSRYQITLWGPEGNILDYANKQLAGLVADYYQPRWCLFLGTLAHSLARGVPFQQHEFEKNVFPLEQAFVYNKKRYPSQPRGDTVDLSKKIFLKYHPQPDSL
# [2] = biological target: T2, AEA-DA lipid probe targets in Neuro2a cells (Mus musculus, UniProt Q9CQQ7)
# T2 sequence (Q9CQQ7 43-256): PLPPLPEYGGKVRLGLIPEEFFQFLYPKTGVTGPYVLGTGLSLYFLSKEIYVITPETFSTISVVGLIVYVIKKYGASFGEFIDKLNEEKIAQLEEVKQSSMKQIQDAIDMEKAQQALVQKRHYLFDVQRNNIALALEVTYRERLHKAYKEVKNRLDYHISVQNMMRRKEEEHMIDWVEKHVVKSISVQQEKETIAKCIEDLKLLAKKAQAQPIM
# [3] = biological target: AEA-DA lipid probe targets in Neuro2a cells (Mus musculus, UniProt Q8VDN2)
# [4] = biological target: T3, AEA-DA lipid probe targets in Neuro2a cells (Mus musculus, UniProt Q8C0L0)
# T3 sequence (Q8C0L0 21-335): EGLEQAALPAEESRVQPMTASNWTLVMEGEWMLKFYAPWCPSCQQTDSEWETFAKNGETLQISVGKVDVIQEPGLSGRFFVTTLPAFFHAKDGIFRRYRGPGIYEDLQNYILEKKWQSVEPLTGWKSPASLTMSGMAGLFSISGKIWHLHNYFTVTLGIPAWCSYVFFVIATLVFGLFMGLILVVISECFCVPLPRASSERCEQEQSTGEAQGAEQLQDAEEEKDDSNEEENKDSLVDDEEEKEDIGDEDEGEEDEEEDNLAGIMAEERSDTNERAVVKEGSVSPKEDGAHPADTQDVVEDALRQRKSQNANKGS
# [5] = biological target: T4, AEA-DA lipid probe targets in Neuro2a cells (Mus musculus, UniProt Q8R2Y0); details: for SILAC ratio, ABHD6 (Q8R2Y0): Neuro2a cells, AEA-DA probe
# T4 sequence (Q8R2Y0 1-336): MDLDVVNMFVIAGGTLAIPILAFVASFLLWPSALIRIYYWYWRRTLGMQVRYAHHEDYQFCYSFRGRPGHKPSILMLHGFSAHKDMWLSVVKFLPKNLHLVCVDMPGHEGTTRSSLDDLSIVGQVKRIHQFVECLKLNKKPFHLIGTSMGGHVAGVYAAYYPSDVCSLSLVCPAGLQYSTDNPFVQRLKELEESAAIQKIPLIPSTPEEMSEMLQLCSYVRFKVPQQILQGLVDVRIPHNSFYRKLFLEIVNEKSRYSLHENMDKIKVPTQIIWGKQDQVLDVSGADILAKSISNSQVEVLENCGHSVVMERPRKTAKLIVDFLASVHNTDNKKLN
# [6] = biological target: AEA-DA lipid probe targets in Neuro2a cells (Mus musculus, UniProt P60229)
# [7] = biological target: AEA-DA lipid probe targets in Neuro2a cells (Mus musculus, UniProt Q9EPE9)
# [8] = biological target: T5, AEA-DA lipid probe targets in Neuro2a cells (Mus musculus, UniProt Q9DBH5)
# T5 sequence (Q9DBH5 47-358): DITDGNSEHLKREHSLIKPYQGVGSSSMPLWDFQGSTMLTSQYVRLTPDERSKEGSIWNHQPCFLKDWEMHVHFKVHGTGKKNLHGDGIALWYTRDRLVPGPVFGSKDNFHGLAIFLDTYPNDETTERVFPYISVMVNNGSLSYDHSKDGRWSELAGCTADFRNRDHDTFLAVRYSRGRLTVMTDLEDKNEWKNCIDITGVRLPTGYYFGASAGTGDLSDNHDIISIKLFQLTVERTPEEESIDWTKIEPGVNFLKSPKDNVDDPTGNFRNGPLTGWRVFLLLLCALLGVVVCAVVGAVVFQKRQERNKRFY
# [9] = biological target: T6, AEA-DA lipid probe targets in Neuro2a cells (Mus musculus, UniProt P09103)
# T6 sequence (P09103 20-509): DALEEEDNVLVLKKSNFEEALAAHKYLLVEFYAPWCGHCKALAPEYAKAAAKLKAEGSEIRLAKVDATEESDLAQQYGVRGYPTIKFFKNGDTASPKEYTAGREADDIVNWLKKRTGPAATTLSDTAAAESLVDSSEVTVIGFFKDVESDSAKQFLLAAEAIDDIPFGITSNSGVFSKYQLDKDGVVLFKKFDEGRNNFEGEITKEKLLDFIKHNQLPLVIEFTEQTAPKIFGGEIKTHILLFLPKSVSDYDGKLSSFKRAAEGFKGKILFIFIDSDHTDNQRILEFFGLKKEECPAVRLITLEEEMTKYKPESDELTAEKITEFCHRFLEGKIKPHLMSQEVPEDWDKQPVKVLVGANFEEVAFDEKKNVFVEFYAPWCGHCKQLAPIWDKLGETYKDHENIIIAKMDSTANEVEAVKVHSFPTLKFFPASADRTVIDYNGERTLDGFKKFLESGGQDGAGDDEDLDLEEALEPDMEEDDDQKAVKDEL
# AEA-DA lipid probe targets in Neuro2a cells (Mus musculus, UniProt P60229), sequence (P60229 whole entry): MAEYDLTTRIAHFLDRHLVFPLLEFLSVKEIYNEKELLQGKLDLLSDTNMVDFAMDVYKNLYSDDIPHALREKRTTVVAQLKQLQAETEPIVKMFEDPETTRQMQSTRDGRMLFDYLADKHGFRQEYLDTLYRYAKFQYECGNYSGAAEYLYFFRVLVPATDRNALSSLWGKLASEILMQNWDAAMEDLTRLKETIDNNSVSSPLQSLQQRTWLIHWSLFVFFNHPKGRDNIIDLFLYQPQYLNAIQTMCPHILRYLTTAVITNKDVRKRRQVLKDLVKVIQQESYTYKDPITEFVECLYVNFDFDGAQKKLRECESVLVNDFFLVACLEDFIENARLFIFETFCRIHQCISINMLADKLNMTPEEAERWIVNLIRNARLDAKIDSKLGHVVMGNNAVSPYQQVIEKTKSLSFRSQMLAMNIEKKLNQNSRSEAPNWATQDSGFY
# AEA-DA lipid probe targets in Neuro2a cells (Mus musculus, UniProt Q9EPE9), sequence (Q9EPE9 whole entry): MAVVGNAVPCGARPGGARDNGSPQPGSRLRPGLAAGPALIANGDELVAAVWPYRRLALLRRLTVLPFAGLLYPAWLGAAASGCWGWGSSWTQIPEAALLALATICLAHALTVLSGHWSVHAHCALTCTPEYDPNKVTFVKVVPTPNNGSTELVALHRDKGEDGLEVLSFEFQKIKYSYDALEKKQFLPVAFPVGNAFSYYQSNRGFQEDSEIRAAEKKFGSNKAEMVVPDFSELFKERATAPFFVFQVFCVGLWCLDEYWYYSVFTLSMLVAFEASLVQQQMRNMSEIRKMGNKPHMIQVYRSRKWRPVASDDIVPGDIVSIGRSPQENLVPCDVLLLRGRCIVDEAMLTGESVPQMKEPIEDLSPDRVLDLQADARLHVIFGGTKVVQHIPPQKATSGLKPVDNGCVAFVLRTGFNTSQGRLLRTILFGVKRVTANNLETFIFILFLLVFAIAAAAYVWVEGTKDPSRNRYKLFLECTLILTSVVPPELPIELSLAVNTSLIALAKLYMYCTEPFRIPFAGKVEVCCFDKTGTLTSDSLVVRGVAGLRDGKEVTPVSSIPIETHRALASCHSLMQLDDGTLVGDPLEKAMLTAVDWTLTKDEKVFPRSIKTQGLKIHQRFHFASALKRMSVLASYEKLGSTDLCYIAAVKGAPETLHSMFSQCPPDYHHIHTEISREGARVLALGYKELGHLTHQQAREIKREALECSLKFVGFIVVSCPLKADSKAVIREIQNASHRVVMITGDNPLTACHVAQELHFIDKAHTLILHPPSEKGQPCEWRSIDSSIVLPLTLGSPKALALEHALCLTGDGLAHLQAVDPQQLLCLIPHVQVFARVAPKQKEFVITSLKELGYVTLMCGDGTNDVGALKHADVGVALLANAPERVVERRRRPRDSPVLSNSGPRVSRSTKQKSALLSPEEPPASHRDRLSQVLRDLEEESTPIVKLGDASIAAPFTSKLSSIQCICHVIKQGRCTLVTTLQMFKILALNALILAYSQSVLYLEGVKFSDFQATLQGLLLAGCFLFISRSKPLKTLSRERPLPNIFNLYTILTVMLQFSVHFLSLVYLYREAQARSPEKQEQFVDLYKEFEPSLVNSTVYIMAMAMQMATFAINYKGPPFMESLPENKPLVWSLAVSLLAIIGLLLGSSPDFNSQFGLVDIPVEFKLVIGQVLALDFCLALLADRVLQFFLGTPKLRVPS
structure (smiles),measurement,setting,value
"CCCCC/C=C\C/C=C\C/C=C\C/C=C\CCCC(=O)NCCO [AEA, anandamide, reference compound]",SILAC ratio Naglu,[1]; competitor 200 μM,1.3
same,SILAC ratio Atp5f1,[2]; competitor 200 μM,1.5
same,SILAC ratio Atp1a1,[3]; competitor 200 μM,1.4
same,SILAC ratio Tmx4,[4]; competitor 200 μM,1.9
same,"SILAC ratio, ABHD6 (Q8R2Y0)",[5]; competitor 200 μM,2.3
same,"SILAC ratio, Abhd6",[5]; competitor 200 μM,2.3
same,SILAC ratio Eif3e,[6]; competitor 200 μM,1.2
same,SILAC ratio Atp13a1,[7]; competitor 200 μM,1.4
same,SILAC ratio Lman2,[8]; competitor 200 μM,1.5
same,SILAC ratio P4hb,[9]; competitor 200 μM,1.2
"O=C(/C=C/c1cccnc1)NCCCCC1CCN(C(=O)c2ccccc2)CC1 [FK-866, reference compound]",SILAC ratio Naglu,[1]; competitor 25 μM,1.3
same,SILAC ratio Atp5f1,[2]; competitor 25 μM,1.1
same,SILAC ratio Atp1a1,[3]; competitor 25 μM,1.2
same,SILAC ratio Tmx4,[4]; competitor 25 μM,1.0
same,"SILAC ratio, ABHD6 (Q8R2Y0)",[5]; competitor 25 μM,1.7
same,"SILAC ratio, Abhd6",[5]; competitor 25 μM,1.7
same,SILAC ratio Eif3e,[6]; competitor 25 μM,1.1
same,SILAC ratio Atp13a1,[7]; competitor 25 μM,1.1
same,SILAC ratio Lman2,[8]; competitor 25 μM,1.1
same,SILAC ratio P4hb,[9]; competitor 25 μM,1.4
"CN1CCN(C(=O)c2c(-c3ccccc3)c3cc([N+](=O)[O-])ccc3n2C)CC1 [KML110, (1-Methyl-5-nitro-3-phenyl-1H-indol-2-yl)(4-methylpiperazin-1-yl)methanone]",SILAC ratio Naglu,[1]; competitor 25 μM,1.4
same,SILAC ratio Atp5f1,[2]; competitor 25 μM,1.6
same,SILAC ratio Atp1a1,[3]; competitor 25 μM,1.2
same,SILAC ratio Tmx4,[4]; competitor 25 μM,1.4
same,"SILAC ratio, Abhd6",[5]; competitor 25 μM,2.6
same,SILAC ratio Eif3e,[6]; competitor 25 μM,1.4
same,SILAC ratio Atp13a1,[7]; competitor 25 μM,1.7
same,SILAC ratio Lman2,[8]; competitor 25 μM,1.3
same,SILAC ratio P4hb,[9]; competitor 25 μM,1.8
"CN1CCN(C(=O)c2[nH]c3ccc([N+](=O)[O-])cc3c2-c2ccccc2)CC1 [MJN228, (4-Methylpiperazin-1-yl)(5-nitro-3-phenyl-1H-indol-2-yl)methanone]",SILAC ratio Naglu,[1]; competitor 10 μM,1.4
same,SILAC ratio Naglu,[1]; competitor 25 μM,1.3
same,SILAC ratio Naglu,[1]; competitor 50 μM,1.9
same,SILAC ratio Naglu,[1]; competitor 100 μM,1.7
same,SILAC ratio Atp5f1,[2]; competitor 10 μM,1.2
same,SILAC ratio Atp5f1,[2]; competitor 25 μM,1.5
same,SILAC ratio Atp5f1,[2]; competitor 50 μM,1.6
same,SILAC ratio Atp5f1,[2]; competitor 100 μM,1.8
same,SILAC ratio Atp1a1,[3]; competitor 10 μM,1.4
same,SILAC ratio Atp1a1,[3]; competitor 25 μM,1.4
same,SILAC ratio Atp1a1,[3]; competitor 50 μM,1.1
same,SILAC ratio Atp1a1,[3]; competitor 100 μM,1.2
same,SILAC ratio Tmx4,[4]; competitor 10 μM,1.0
same,SILAC ratio Tmx4,[4]; competitor 25 μM,1.3
same,SILAC ratio Tmx4,[4]; competitor 50 μM,1.3
same,SILAC ratio Tmx4,[4]; competitor 100 μM,1.6
same,"SILAC ratio, ABHD6 (Q8R2Y0)",[5]; competitor 25 μM,1.7
same,"SILAC ratio, Abhd6",[5]; competitor 10 μM,1.2
same,"SILAC ratio, Abhd6",[5]; competitor 25 μM,1.7
same,"SILAC ratio, Abhd6",[5]; competitor 50 μM,2.3
same,"SILAC ratio, Abhd6",[5]; competitor 100 μM,2.9
same,SILAC ratio Eif3e,[6]; competitor 10 μM,1.1
same,SILAC ratio Eif3e,[6]; competitor 25 μM,1.1
same,SILAC ratio Eif3e,[6]; competitor 50 μM,1.0
same,SILAC ratio Eif3e,[6]; competitor 100 μM,1.0
same,SILAC ratio Atp13a1,[7]; competitor 10 μM,1.3
same,SILAC ratio Atp13a1,[7]; competitor 25 μM,1.7
same,SILAC ratio Atp13a1,[7]; competitor 50 μM,2.0
same,SILAC ratio Atp13a1,[7]; competitor 100 μM,2.2
same,SILAC ratio Lman2,[8]; competitor 10 μM,1.2
same,SILAC ratio Lman2,[8]; competitor 25 μM,1.1
same,SILAC ratio Lman2,[8]; competitor 50 μM,2.1
same,SILAC ratio Lman2,[8]; competitor 100 μM,1.5
same,SILAC ratio P4hb,[9]; competitor 10 μM,1.3
same,SILAC ratio P4hb,[9]; competitor 25 μM,1.5
same,SILAC ratio P4hb,[9]; competitor 50 μM,2.0
same,SILAC ratio P4hb,[9]; competitor 100 μM,2.2
"C=CCN(C)CCCCCCOc1ccc(C(=O)c2ccc(Br)cc2)c(F)c1 [Ro 48-8071, reference compound]",SILAC ratio Naglu,[1]; competitor 25 μM,0.3
same,SILAC ratio Atp5f1,[2]; competitor 25 μM,1.0
same,SILAC ratio Atp1a1,[3]; competitor 25 μM,1.0
same,SILAC ratio Tmx4,[4]; competitor 25 μM,1.2
same,"SILAC ratio, ABHD6 (Q8R2Y0)",[5]; competitor 25 μM,1.2
same,"SILAC ratio, Abhd6",[5]; competitor 25 μM,1.2
same,SILAC ratio Eif3e,[6]; competitor 25 μM,0.8
same,SILAC ratio Atp13a1,[7]; competitor 25 μM,1.2
same,SILAC ratio Lman2,[8]; competitor 25 μM,0.7
same,SILAC ratio P4hb,[9]; competitor 25 μM,1.0
